Measurements: patent EP0726760B1, “SELF-EMULSIBLE FORMULATION FORMING AN OIL-IN-WATER EMULSION” (YISSUM RESEARCH DEVELOPMENT COMPANY OF THE HEBREW …, priority 1993, dated 1995)
Read-outs that look alike come from different tables or passages of the source.

Assay: Acute toxicity after intraperitoneal injection, 30 days
Parameters: species or system souris BALB/c
Conditions: mouse, in vivo, ip, printed 1:10 (0.5), i.p., read-out: % de survivants après 30 jours
Procedure: La toxicité aiguë des formulations décrites dans les exemples II - IV, a été examinée sur des souris BALB/c pendant 30 jours. 0.5 ml de chacun des SEOF dilué au 10ème (plus que 300 fois constitue un surdosage) et au 100ème (plus que 30 fois constitue un surdosage) ont été injectés intrapéritonalement au groupe de 4-6 souris. L'état de l'animal a été surveillé pendant plusieurs heures après le processus et ensuite chaque jour, pandant un mois.

OCc1ccccc1 [BA, alcool benzylique]
survival at 720 h (BA 1.5 % in water for injection): 100% | survival at 720 h (BA 3 % in water for injection): 15%
